We go through 23 compounds from patent US11524010B2, “Substituted quinazoline sulfonamides as thioredoxin interacting protein (TXNIP) inhibitors” (SOUTHERN RESEARCH INSTITUTE, priority 2017, dated 2022).

Data set [1] concerns TXNIP. Put plainly: Inhibition of glucose-induced endogenous TXNIP expression in INS-1 cells (qRT-PCR). In kind it is cell-based, Rat. The conditions noted are these: 25 mM glucose; for inhibition at 1.5 µM / inhibition at 12.5 µM: Rattus norvegicus, INS1, 24 h. The procedure: The Rat INS-1 cell line was obtained from UAB and maintained in RPMI-1640 (Invitrogen #11875) supplemented with 10% fetal bovine serum (FBS), 100 U/ml penicillin and […] streptomycin, 10 mM HEPES, 1 mM Sodium Pyruvate, 50 μM 2-Mercaptoethanol, and 11.1 mM Glucose in a humidified incubator with a 5% C02 atmosphere at 37° C. 4×10^4 cells per well were seeded to 96-well plate and incubated at 37° C. overnight. A subset of the cells were then cultured in medium with 5 mM Glucose for 24 hrs and then treated in medium with 25 mM glucose with or without compounds to be tested for another 24 hrs.
For the primary high throughput screening (HTS) assay, stably transfected, monoclonal INS-1 cells were split using Trypsin (2 ml per T75 flask) and seeded at a density of 10^4/well in a 384-well plate and incubated overnight at low, 5 mM glucose. The next day, the medium was changed to high glucose (25 mM) or high glucose plus the small molecules to be tested and luciferase assays were performed 24 h later. […] For secondary screens, total RNA was extracted from 96-well cultured cells using RNeasy 96 kit (Qiagen #74181) following the manufacturer's protocol using spin technology. Then a one-step qRT-PCR amplification was performed using QuantiFast SYBR Green RT-PCR kit (Qiagen #204154) and was carried out in a 10 μl reaction which consisted of 2 μl RNA, 0.5 μM each of primers (Rat TXNIP 5′ primer: […] (SEQ ID NO:1) and Rat TXNIP 3′ primer: […] (SEQ ID NO:2); Or Rat 18S rRNA 5′ primer: […] (SEQ ID NO:3) and Rat 18S rRNA 3′ primer: […]) (SEQ ID NO:4), 5 μl 2×SYBR Green Master Mix, 0.1 μl 10× QuantiFast RT Mix. The SYBR Green assay was performed using a LightCycler 480 II (Roche Applied Science) with an initial incubation at 50° C. for 10 min for RT followed by denaturation at 95° C. for 5 min. Forty cycles of amplification were performed using a thermal cycling profile of 95° C. for 10s, 60° C. for 30 s. Subsequently, a melting curve was recorded by holding at 95° C. for 60 s, cooling to 60° C. for 60 s, and then heating at 0.11° C./s up to 95° C. The data was collected and analyzed using the LightCycler 480 Software Release 1.5.0 SP3. The relative amount of TXNIP mRNA was normalized to 18 s rRNA level as a housekeeping gene, and the data was analyzed according to the 2^−ΔΔCT method (1). The transformed data was expressed as % inhibition and compound IC50 calculated by a 4-parameter logistic fit of the data using GraphPad Prism 7.

Data set [2] in a line: INS-1 cell viability (Cell Titer-Glo, ATP). In kind it is cell-based, Rat. Particulars: rat, INS-1 cells, 72 hrs treatment. The procedure:
INS-1 cell viability was determined based on quantification of ATP using Cell Titer-Glo Luminescent Cell Viability Assay kit (Promega #G7572), which indicates the presence of metabolically active cells. Briefly, INS-1 cells were seeded into 96-well plates at a cell density of 4.5×10^4 and 3.5×10^4 cells per well and incubated overnight at 37° C. with 5% CO2. On the following day, cells were treated with compounds for 24 hrs and 72 hrs respectively. Cell Titer-Glo reagent was added to the cells and Luminescence was acquired on Synergy 4 Reader ([…]).

Molecules are shown by their SMILES. A value given as a limit tells only on which side of the number the result lay.

In data set [1] (1.5 μM compound), `CS(=O)(=O)NCC1CCCN(c2ncnc3ccc(C#N)cc23)C1` (centres unmarked) [Compound 13, N-((1-(6-cyanoquinazolin-4-yl)piperidin-3-yl)methyl)methanesulfonamide] registered an inhibition at 1.5 µM of 41%. For the same compound, the inhibition at 12.5 µM in data set [1] (12.5 μM compound) amounted to 1%. The CC50 at 72 h in data set [2] is 42 µM.
In data set [1] (1.5 μM compound), `CS(=O)(=O)NCC1CCCN(c2nc(O)nc3ccc(C(F)(F)F)cc23)C1` (centres unmarked) [Compound 62, N-((1-(2-hydroxy-6-(trifluoromethyl)quinazolin-4-yl)piperidin-3-yl)methyl)methanesulfonamide] yielded an inhibition at 1.5 µM of 20%. In addition, the inhibition at 12.5 µM in data set [1] (12.5 μM compound) was found to be 20%. In addition, the CC50 at 72 h in data set [2] is more than 100 µM.
As for `CC(NS(C)(=O)=O)C1CCCN(c2ncnc3cc(F)c(F)cc23)C1` (centres unmarked) [Compound 45, N-(1-(1-(6,7-difluoroquinazolin-4-yl)piperidin-3-yl)ethyl)methanesulfonamide], in data set [1] (1.5 μM compound), the inhibition at 1.5 µM amounted to 22%. The compound also came in with an inhibition at 12.5 µM in data set [1] (12.5 μM compound) of 44%. The CC50 at 72 h in data set [2] was more than 100 µM.
On the same counts, the results for `CS(=O)(=O)NCC1CCCN(c2ncnc3cc(F)c(C#N)cc23)C1` (centres unmarked) [Compound 29, N-((1-(6-cyano-7-fluoroquinazolin-4-yl)piperidin-3-yl)methyl)methanesulfonamide] are 39%, 66% and more than 100 µM.
The like results for `CS(=O)(=O)NCC1CCCN(c2ncnc3ccc(N4CCOCC4)cc23)C1` (centres unmarked) [Compound 24, N-((1-(6-morpholinoquinazolin-4-yl)piperidin-3-yl)methyl)methanesulfonamide] were, in that order, 20%, 20% and more than 100 µM.
Regarding `CS(=O)(=O)NCC1CCCN(c2ncnc3cccc(F)c23)C1` (centres unmarked) [Compound 2, N-((1-(5-fluoroquinazolin-4-yl)piperidin-3-yl)methyl)methanesulfonamide], the inhibition at 1.5 µM in data set [1] (1.5 μM compound) worked out at 13%. Further, the inhibition at 12.5 µM in data set [1] (12.5 μM compound) was 61%. Further, the CC50 at 72 h in data set [2] was more than 100 µM.
In data set [1] (1.5 μM compound), `CS(=O)(=O)NCC1CCCN(c2ncnc3cccc(Cl)c23)C1` (centres unmarked) [Compound 6, N-((1-(5-chloroquinazolin-4-yl)piperidin-3-yl)methyl)methanesulfonamide] showed an inhibition at 1.5 µM of 29%. This compound displayed an inhibition at 12.5 µM in data set [1] (12.5 μM compound) of 43%. The CC50 at 72 h in data set [2] was more than 100 µM.
For `CS(=O)(=O)NCC1CN(c2ncnc3ccc(F)cc23)CCO1` (centres unmarked) [Compound 46, N-((4-(6-fluoroquinazolin-4-yl)morpholin-2-yl)methyl)methanesulfonamide], in data set [1] (1.5 μM compound), 1.5 µM produced 0% inhibition. Besides, the inhibition at 12.5 µM in data set [1] (12.5 μM compound) amounted to 55%. Further, the CC50 at 72 h in data set [2] was more than 100 µM.
On the same counts, the results for `CC(C)N(CC1CCCN(c2ncnc3ccc(F)cc23)C1)S(=O)(=O)c1ccccc1` (centres unmarked) [Compound 42, N-((1-(6-fluoroquinazolin-4-yl)piperidin-3-yl)methyl)-N-isopropylbenzenesulfonamide] are 32%, 30% and 4 µM.
On the same counts, the results for `CS(=O)(=O)NCC1CCN(c2ncnc3ccc(F)cc23)C1` (centres unmarked) [Compound 51, N-((1-(6-fluoroquinazolin-4-yl)pyrrolidin-3-yl)methyl)methanesulfonamide] are 18%, 20% and more than 100 µM.
The like results for `CS(=O)(=O)NC1CCCN(c2ncnc3ccccc23)C1` (centres unmarked) [Compound 31, N-(1-(quinazolin-4-yl)piperidin-3-yl)methanesulfonamide] were, in that order, 17%, 82% and 67 µM.
Take `O=S(=O)(NCC1CCCN(c2ncnc3ccc(C(F)(F)F)cc23)C1)C1CC1` (centres unmarked) [Compound 57, N-((1-(6-(trifluoromethyl)quinazolin-4-yl)piperidin-3-yl)methyl)cyclopropanesulfonamide]: at 1.5 µM the inhibition in data set [1] (1.5 μM compound) was 33%. For the same compound, the inhibition at 12.5 µM in data set [1] (12.5 μM compound) was determined as 67%. Further, in data set [2], the CC50 at 72 h amounted to 43 µM.
In turn, `CS(=O)(=O)NCC1CCCN(c2ncnc3cc(C(=O)O)ccc23)C1` (centres unmarked) [Compound 18, 4-(3-(methylsulfonamidomethyl)piperidin-1-yl)quinazoline-7-carboxylic acid] had an inhibition at 1.5 µM in data set [1] (1.5 μM compound) of 10%. Besides, the inhibition at 12.5 µM in data set [1] (12.5 μM compound) is 10%. Further, the CC50 at 72 h in data set [2] is more than 100 µM.
Take `O=S(=O)(NCC1CCCN(c2ncnc3ccc(C(F)(F)F)cc23)C1)c1ccc(Cl)cc1` (centres unmarked) [Compound 56, 4-chloro-N-((1-(6-(trifluoromethyl)quinazolin-4-yl)piperidin-3-yl)methyl)benzenesulfonamide]: in data set [1] (1.5 μM compound), the inhibition at 1.5 µM amounted to 19%. Further, testing at 12.5 µM in data set [1] (12.5 μM compound) gave an inhibition of 30%. Moreover, the CC50 at 72 h in data set [2] worked out at 17 µM.
The like results for `O=S(=O)(NCC1CCCN(c2ncnc3ccc(C(F)(F)F)cc23)C1)c1ccccc1` (centres unmarked) [Compound 54, N-((1-(6-(trifluoromethyl)quinazolin-4-yl)piperidin-3-yl)methyl)benzenesulfonamide] were, in that order, 19%, 53% and 17 µM.
As for `CS(=O)(=O)NCC1CN(c2ncnc3cc(C(N)=O)c(F)cc23)CCO1` (centres unmarked) [Compound 47, 6-fluoro-4-(2-(methylsulfonamidomethyl)morpholino)quinazoline-7-carboxamide], in data set [1] (1.5 μM compound), 1.5 µM produced 5% inhibition. In data set [1] (12.5 μM compound), this compound came in with an inhibition at 12.5 µM of 7%. The CC50 at 72 h in data set [2] is more than 100 µM.
`CS(=O)(=O)NCC1CCCN(c2ncnc3ccc(NC(=O)c4ccccn4)cc23)C1` (centres unmarked) [Compound 28, N-(4-(3-(methylsulfonamidomethyl)piperidin-1-yl)quinazolin-6-yl)picolinamide] had an inhibition at 1.5 µM in data set [1] (1.5 μM compound) of 4%. The compound further came in with an inhibition at 12.5 µM in data set [1] (12.5 μM compound) of 5%. The 50% cytotoxic concentration (CC50) at 72 h in data set [2] is more than 100 µM.
In data set [1] (1.5 μM compound), `CS(=O)(=O)NCC1(F)CCCN(c2ncnc3cc(F)c(C#N)cc23)C1` (centres unmarked) [Compound 50, N-((1-(6-cyano-7-fluoroquinazolin-4-yl)-3-fluoropiperidin-3-yl)methyl)methanesulfonamide] returned an inhibition at 1.5 µM of 2%. Further, the inhibition at 12.5 µM in data set [1] (12.5 μM compound) was 18%. Also, the CC50 at 72 h in data set [2] is more than 100 µM.
The compound `CS(=O)(=O)NCC1CCCN(c2ncnc3cc(F)c(C(F)(F)F)cc23)C1` (centres unmarked) [Compound 30, N-((1-(7-fluoro-6-(trifluoromethyl)quinazolin-4-yl)piperidin-3-yl)methyl)methane-sulfonamide] returned an inhibition at 1.5 µM in data set [1] (1.5 μM compound) of 9%. In addition, in data set [1] (12.5 μM compound), the inhibition at 12.5 µM was 33%. Moreover, in data set [2], the CC50 at 72 h is more than 100 µM.
The like results for `CS(=O)(=O)NCC1CCCN(c2ncnc3cc(F)c(F)cc23)C1` (centres unmarked) [Compound 7, N-((1-(6,7-difluoroquinazolin-4-yl)piperidin-3-l)methyl)methanesulfonamide] were, in that order, 40%, 54% and more than 100 µM.
On the same counts, the results for `CS(=O)(=O)NCC1CCN(c2ncnc3ccc(F)cc23)CC1` [Compound 44, N-((1-(6-fluoroquinazolin-4-yl)piperidin-4-yl)methyl)methanesulfonamide] are 4%, 22% and more than 100 µM.
Consider `CS(=O)(=O)NCC1CCCN(c2ncnc3ccc(-c4ccccn4)cc23)C1` (centres unmarked) [Compound 27, N-((1-(6-(pyridin-2-yl)quinazolin-4-yl)piperidin-3-yl)methyl)methanesulfonamide], for which, in data set [1] (1.5 μM compound), at 1.5 µM the inhibition was 9%. In data set [1] (12.5 μM compound), this compound registered an inhibition at 12.5 µM of 4%. In data set [2], the CC50 at 72 h was 70 µM.
Regarding `CS(=O)(=O)NCC1CCCN(c2ncnc3cc(F)c(C#N)cc23)C1.Cl` (centres unmarked) [Compound 29a, N-((1-(6-cyano-7-fluoroquinazolin-4-yl)piperidin-3-yl)methyl)methanesulfonamide hydrochloride], the “TXNIP % Inhibition at 1.5 μM” value in data set [1] (1.5 μM compound, 24 hrs) stood at 35%. In addition, the “TXNIP % Inhibition at 12.5 μM” value in data set [1] (12.5 μM compound, 24 hrs) amounted to 55%.

In general, inhibition refers to the share of the control response that was lost under treatment. A high value points to a response far below the control. The CC50 is the concentration at which the toxic effect on the cells reaches its halfway point.
